From patent US20240208992A1, “MACROCYCLES AS CFTR MODULATORS” (Idorsia Pharmaceuticals Ltd, priority 2021, published 2024) come the findings set out here.

For this assay, the target named is human F508del-CFTR (Homo sapiens, UniProt P13569, DEL508-508). The experiment in a line: F508del-CFTR cell surface expression (corrector activity), DiscoveRx ß-galactosidase complementation chemiluminescence assay in recombinant U2OS cell line.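 On all read-outs here: U2OS cells co-expressing ProLink-tagged F508del-CFTR and a membrane-anchored enzyme acceptor, where more surface CFTR restores β-galactosidase activity measured by chemiluminescence.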 As to conditions: for EC50: EC50, F508del-CFTR cell surface expression, U2OS cells, 16h compound incubation, geomean values; for Emax: U2OS, in relation to Emax of corrector lumacaftor (=100%), arithmetic mean values.
Chain of human F508del-CFTR (P13569 with tags, fused parts or gaps DEL508-508): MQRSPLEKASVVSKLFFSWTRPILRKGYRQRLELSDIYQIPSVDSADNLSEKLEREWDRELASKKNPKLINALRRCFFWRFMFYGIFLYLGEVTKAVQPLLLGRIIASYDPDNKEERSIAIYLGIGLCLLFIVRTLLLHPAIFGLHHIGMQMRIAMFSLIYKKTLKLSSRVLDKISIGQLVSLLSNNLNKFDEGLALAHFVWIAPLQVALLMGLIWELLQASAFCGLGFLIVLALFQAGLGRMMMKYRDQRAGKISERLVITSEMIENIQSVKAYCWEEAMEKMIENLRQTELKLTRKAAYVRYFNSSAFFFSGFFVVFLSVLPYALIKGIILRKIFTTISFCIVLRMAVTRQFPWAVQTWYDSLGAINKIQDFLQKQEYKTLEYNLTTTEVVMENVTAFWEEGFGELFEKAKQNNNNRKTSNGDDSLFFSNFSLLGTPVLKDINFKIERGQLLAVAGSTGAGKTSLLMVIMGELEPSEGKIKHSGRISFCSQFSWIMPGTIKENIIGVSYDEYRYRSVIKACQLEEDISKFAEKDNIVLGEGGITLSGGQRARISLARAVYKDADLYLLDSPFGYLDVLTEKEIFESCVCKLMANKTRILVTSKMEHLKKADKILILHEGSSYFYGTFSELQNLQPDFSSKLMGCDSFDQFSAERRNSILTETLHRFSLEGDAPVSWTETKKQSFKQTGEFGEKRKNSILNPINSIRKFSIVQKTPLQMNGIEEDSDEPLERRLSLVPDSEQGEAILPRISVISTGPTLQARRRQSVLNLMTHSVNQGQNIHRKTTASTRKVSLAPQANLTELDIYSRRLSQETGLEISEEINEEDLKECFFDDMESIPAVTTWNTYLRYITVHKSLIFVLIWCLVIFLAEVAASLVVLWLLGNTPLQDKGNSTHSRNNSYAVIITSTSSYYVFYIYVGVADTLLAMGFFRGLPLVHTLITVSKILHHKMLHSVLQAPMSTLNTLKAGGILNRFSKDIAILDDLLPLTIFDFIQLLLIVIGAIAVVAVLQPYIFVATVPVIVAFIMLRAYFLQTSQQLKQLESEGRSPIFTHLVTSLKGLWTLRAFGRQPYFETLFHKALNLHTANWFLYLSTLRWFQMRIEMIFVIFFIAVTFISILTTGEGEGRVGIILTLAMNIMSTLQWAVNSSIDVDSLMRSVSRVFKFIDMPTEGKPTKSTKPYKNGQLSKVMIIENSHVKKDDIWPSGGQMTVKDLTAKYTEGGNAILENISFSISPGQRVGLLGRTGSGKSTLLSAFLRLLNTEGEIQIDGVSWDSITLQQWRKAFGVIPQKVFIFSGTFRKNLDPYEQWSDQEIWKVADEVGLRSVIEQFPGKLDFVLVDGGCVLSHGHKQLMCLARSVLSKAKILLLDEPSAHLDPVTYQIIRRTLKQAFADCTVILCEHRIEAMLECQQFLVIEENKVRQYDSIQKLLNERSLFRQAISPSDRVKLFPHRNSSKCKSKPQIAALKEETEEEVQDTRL

Take `COc1cccc(CCNC(=O)[C@@H]2CC(=O)N(C)[C@@H](CC(C)C)C(=O)N3CCN(S(=O)(=O)c4ccccn4)C[C@@H]3C(=O)N[C@H](Cc3ccccc3)COc3ccc4ccccc4c3C(=O)N2)c1` [Example 747, (4aR,7R,18S,22S)-7-benzyl-22-isobutyl-N-(3-methoxyphenethyl)-21-methyl-5,16,20,23-tetraoxo-3-(pyridin-2-ylsulfonyl)-2,3,4,4a,5,6,7,8,16,17,18,19,20,21,22,23-hexadecahydro-1H-naphtho[1,2-p]pyrazino[2,1-f][1]oxa[4,7,10,14]tetraazacycloheptadecine-18-carboxamide]: the half-maximal effective concentration (EC50) is 234 nM and the maximum response (Emax) was found to be 213%.
For the compound `Cc1cc(CCNC(=O)[C@@H]2CC(=O)N(C)[C@@H](CC(C)C)C(=O)N3CCN(S(=O)(=O)c4ccc5c(c4)OCCN5C)C[C@@H]3C(=O)N[C@H](Cc3ccccc3)COc3cnc4ccccc4c3C(=O)N2)on1` [Example 748, (9S,13S,19aR,22R)-22-benzyl-13-isobutyl-12-methyl-18-((4-methyl-3,4-dihydro-2H-benzo[b][1,4]oxazin-7-yl)sulfonyl)-N-(2-(3-methylisoxazol-5-yl)ethyl)-7,11,14,20-tetraoxo-7,8,9,10,11,12,13,14,17,18,19,19a,20,21,22,23-hexadecahydro-16H-pyrazino[2′,11:6,7][1]oxa[4,7,10,14]tetraazacycloheptadecino[17,16-c]quinoline-9-carboxamide], the concentration for a half-maximal effect (EC50) was found to be 529 nM and the Emax turned out to be 295%.
For the compound `Cc1cc(CCNC(=O)[C@@H]2CC(=O)N(C)[C@@H](CC(C)C)C(=O)N3CCN(S(=O)(=O)c4cccc(OC(F)(F)F)c4)C[C@@H]3C(=O)N[C@H](Cc3ccccc3)COc3cnc4ccccc4c3C(=O)N2)on1` [Example 749, (9S,13S,19aR,22R)-22-benzyl-13-isobutyl-12-methyl-N-(2-(3-methylisoxazol-5-yl)ethyl)-7,11,14,20-tetraoxo-18-((3-(trifluoromethoxy)phenyl)sulfonyl)-7,8,9,10,11,12,13,14,17,18,19,19a,20,21,22,23-hexadecahydro-16H-pyrazino[2′,1′:6,7][1]oxa[4,7,10,14]tetraazacycloheptadecino[17,16-c]quinoline-9-carboxamide], the half-maximal effective concentration (EC50) was found to be 153 nM and the Emax stood at 301%.
As to `COc1cccc(CCNC(=O)[C@@H]2CC(=O)N(C)[C@@H](CC(C)C)C(=O)N3CCN(C(C)=O)C[C@@H]3C(=O)N[C@H](Cc3ccccc3)COc3ccc4ccccc4c3C(=O)N2)c1` [Example 750, (4aR,7R,18S,22S)-3-Acetyl-7-benzyl-22-isobutyl-N-(3-methoxyphenethyl)-21-methyl-5,16,20,23-tetraoxo-2,3,4,4a,5,6,7,8,16,17,18,19,20,21,22,23-hexadecahydro-1H-naphtho[1,2-p]pyrazino[2,1-f][1]oxa[4,7,10,14]tetraazacycloheptadecine-18-carboxamide], the EC50 was 784 nM and the Emax was found to be 267%.
Taken in the same sequence, the figures for `COc1cccc(CCNC(=O)[C@@H]2CC(=O)N(C)[C@@H](CC(C)C)C(=O)N3CCN(C(=O)CC(C)C)C[C@@H]3C(=O)N[C@H](Cc3ccccc3)COc3ccc4ccccc4c3C(=O)N2)c1` [Example 751, (4aR,7R,18S,22S)-7-benzyl-22-isobutyl-N-(3-methoxyphenethyl)-21-methyl-3-(3-methylbutanoyl)-5,16,20,23-tetraoxo-2,3,4,4a,5,6,7,8,16,17,18,19,20,21,22,23-hexadecahydro-1H-naphtho[1,2-p]pyrazino[2,1-f][1]oxa[4,7,10,14]tetraazacycloheptadecine-18-carboxamide] were 217 nM and 213%.
For `COCCC(=O)N1CCN2C(=O)[C@H](CC(C)C)N(C)C(=O)C[C@@H](C(=O)NCCc3cccc(OC)c3)NC(=O)c3c(ccc4ccccc34)OC[C@@H](Cc3ccccc3)NC(=O)[C@H]2C1` [Example 752, (4aR,7R,18S,22S)-7-benzyl-22-isobutyl-N-(3-methoxyphenethyl)-3-(3-methoxypropanoyl)-21-methyl-5,16,20,23-tetraoxo-2,3,4,4a,5,6,7,8,16,17,18,19,20,21,22,23-hexadecahydro-1H-naphtho[1,2-p]pyrazino[2,1-f][1]oxa[4,7,10,14]tetraazacycloheptadecine-18-carboxamide] the same measures were 706 nM and 200%.
Taken in the same sequence, the figures for `COc1cccc(CCNC(=O)[C@@H]2CC(=O)N(C)[C@@H](CC(C)C)C(=O)N3CCN(C(=O)c4cnccn4)C[C@@H]3C(=O)N[C@H](Cc3ccccc3)COc3ccc4ccccc4c3C(=O)N2)c1` [Example 753, (4aR,7R,18S,22S)-7-benzyl-22-isobutyl-N-(3-methoxyphenethyl)-21-methyl-5,16,20,23-tetraoxo-3-(pyrazine-2-carbonyl)-2,3,4,4a,5,6,7,8,16,17,18,19,20,21,22,23-hexadecahydro-1H-naphtho[1,2-p]pyrazino[2,1-f][1]oxa[4,7,10,14]tetraazacycloheptadecine-18-carboxamide] were 430 nM and 264%.
As for `COC(=O)N1CCN2C(=O)[C@H](CC(C)C)N(C)C(=O)C[C@@H](C(=O)NCCc3cccc(OC)c3)NC(=O)c3c(ccc4ccccc34)OC[C@@H](Cc3ccccc3)NC(=O)[C@H]2C1` [Example 754, Methyl (4aR,7R,18S,22S)-7-benzyl-22-isobutyl-18-((3-methoxyphenethyl)carbamoyl)-21-methyl-5,16,20,23-tetraoxo-1,2,4,4a,5,6,7,8,16,17,18,19,20,21,22,23-hexadecahydro-3H-naphtho[1,2-p]pyrazino[2,1-f][1]oxa[4,7,10,14]tetraazacycloheptadecine-3-carboxylate], the EC50 is 219 nM and the Emax turned out to be 279%.
For `CCOC(=O)N1CCN2C(=O)[C@H](CC(C)C)N(C)C(=O)C[C@@H](C(=O)NCCc3cccc(OC)c3)NC(=O)c3c(ccc4ccccc34)OC[C@@H](Cc3ccccc3)NC(=O)[C@H]2C1` [Example 755, ethyl (4aR,7R,18S,22S)-7-benzyl-22-isobutyl-18-((3-methoxyphenethyl)carbamoyl)-21-methyl-5,16,20,23-tetraoxo-1,2,4,4a,5,6,7,8,16,17,18,19,20,21,22,23-hexadecahydro-3H-naphtho[1,2-p]pyrazino[2,1-f][1]oxa[4,7,10,14]tetraazacycloheptadecine-3-carboxylate] the same measures were 168 nM and 270%.
Taken in the same sequence, the figures for `COc1cccc(CCNC(=O)[C@@H]2CC(=O)N(C)[C@@H](CC(C)C)C(=O)N3CCN(C(=O)OC4CCOCC4)C[C@@H]3C(=O)N[C@H](Cc3ccccc3)COc3ccc4ccccc4c3C(=O)N2)c1` [Example 756, Tetrahydro-2H-pyran-4-yl (4aR,7R,18S,22S)-7-benzyl-22-isobutyl-18-((3-methoxyphenethyl)carbamoyl)-21-methyl-5,16,20,23-tetraoxo-1,2,4,4a,5,6,7,8,16,17,18,19,20,21,22,23-hexadecahydro-3H-naphtho[1,2-p]pyrazino[2,1-f][1]oxa[4,7,10,14]tetraazacycloheptadecine-3-carboxylate] were 311 nM and 252%.
For `COc1cccc(CCNC(=O)[C@@H]2CC(=O)N(C)[C@@H](CC(C)C)C(=O)N3CCN([S@](=O)(=NC(=O)OC(C)(C)C)c4ccccc4)C[C@@H]3C(=O)N[C@H](Cc3ccccc3)COc3ccc4ccccc4c3C(=O)N2)c1` [Example 757, tert-Butyl (((4aR,7R,18S,22S)-7-benzyl-22-isobutyl-18-((3-methoxyphenethyl)carbamoyl)-21-methyl-5,16,20,23-tetraoxo-1,2,4,4a,5,6,7,8,16,17,18,19,20,21,22,23-hexadecahydro-3H-naphtho[1,2-p]pyrazino[2,1-f][1]oxa[4,7,10,14]tetraazacycloheptadecin-3-yl)(oxo)(phenyl)-16-sulfaneylidene)carbamate] the same measures were 145 nM and 280%.
Take `COc1cccc(CCNC(=O)[C@@H]2CC(=O)N(C)[C@@H](CC(C)C)C(=O)N3CCN([S@@](=N)(=O)c4ccccc4)C[C@@H]3C(=O)N[C@H](Cc3ccccc3)COc3ccc4ccccc4c3C(=O)N2)c1` [Example 758, (4aR,7R,18S,22S)-7-Benzyl-22-isobutyl-N-(3-methoxyphenethyl)-21-methyl-5,16,20,23-tetraoxo-3-(phenylsulfonimidoyl)-2,3,4,4a,5,6,7,8,16,17,18,19,20,21,22,23-hexadecahydro-1H-naphtho[1,2-p]pyrazino[2,1-f][1]oxa[4,7,10,14]tetraazacycloheptadecine-18-carboxamide]: the 50% effective concentration (EC50) came to 334 nM and the maximal effect (Emax) was 266%.
Taken in the same sequence, the figures for `CC(C)C[C@H]1C(=O)N2CCOC[C@@H]2C(=O)N[C@H](Cc2ccccc2)COc2ccc3ccccc3c2C(=O)N[C@H](C(=O)NCCc2cccc(C#N)c2)CC(=O)N1C` [Example 759, (4aR,7R,18S,22S)-7-Benzyl-N-(3-cyanophenethyl)-22-isobutyl-21-methyl-5,16,20,23-tetraoxo-1,2,4,4a,5,6,7,8,16,17,18,19,20,21,22,23-hexadecahydronaphtho[1,2-p][1,4]oxazino[3,4-f][1]oxa[4,7,10,14]tetraazacycloheptadecine-18-carboxamide] were 296 nM and 131%.
Regarding `COc1cccc(CCNC(=O)[C@@H]2CC(=O)N(C)[C@@H](CC(C)C)C(=O)N3CCCC[C@@H]3C(=O)N[C@H](Cc3ccccc3)COc3c[n+]([O-])c4ccccc4c3C(=O)N2)c1` [Example 760, (9S,13S,19aR,22R)-22-Benzyl-13-isobutyl-9-((3-methoxyphenethyl)carbamoyl)-12-methyl-7,11,14,20-tetraoxo-7,8,9,10,11,12,13,14,17,18,19,19a,20,21,22,23-hexadecahydro-16H-pyrido[2′,1′:6,7][1]oxa[4,7,10,14]tetraazacycloheptadecino[17,16-c]quinoline 2-oxide], the EC50 turned out to be 723 nM and the Emax turned out to be 333%.

By EC50 is commonly meant the midpoint of the concentration-response curve. Broadly, the Emax is the greatest response seen or fitted, relative to the assay's reference.
